This passage reports IC50 and MCC results from patent publication EP0630897A2, “3-Hydroxy-4-hydroxymethyl-2-methylene-cyclopentyl purines and pyrimidines” (BRISTOL-MYERS SQUIBB COMPANY, priority 1993, dated 1994).

Common to all, as to type: cell-based
In series [1] the test system is HSV-2 (herpes simplex virus type 2, strain 186). Nature of the series: Plaque reduction antiviral assay in WI-38 cell culture, HSV-2. The conditions noted are these: Human alphaherpesvirus 2, 96 h; WI-38 monolayers, at least 50% plaque reduction, 4 days incubation at 37°C; read-out: ID50(μM) for the following viruses HSV-2. On the procedure: (§1) Assays were performed in cell culture systems to determine the concentrations of compounds that are effective in preventing several kinds of viral infections. HSV-1 (herpes simplex virus type 1, strain Schooler), HSV-2 (herpes simplex virus type 2, strain 186), VZV (varicella zoster virus, strain ELLEN), HCMV (human cytomegalovirus, strain AD 169). HSV-1, HSV-2, HCMV and VZV antiviral assays: Virus was adsorbed to WI-38 cell culture monolayers in 6 well culture plates (Costar, Cambridge, MA) for 1 hour prior to addition of maintenance medium containing duplicate dilutions of the test compound. Inhibition of plaque development was evaluated on fixed and stained monolayers after 4 days incubation at 37°C. for HSV-1 and HSV-2, and after 5 - 7 days incubation at 37°C. for HCMV and VZV. ID₅₀ values were determined from the drug concentration which conferred at least a 50% plaque reduction compared to virus controls.

The subject of series [2] is HSV-1 (herpes simplex virus type 1, strain Schooler). Nature of the series: Plaque reduction antiviral assay in WI-38 cell culture, HSV-1. To be noted: Human alphaherpesvirus 1, 96 h; WI-38 monolayers, at least 50% plaque reduction, 4 days incubation at 37°C; read-out: ID50(μM) for the following viruses HSV-1. The method, then:
as §1

Series [3] relates to VZV (varicella zoster virus, strain ELLEN). Nature of the series: Plaque reduction antiviral assay in WI-38 cell culture, VZV. The conditions noted are these: Human alphaherpesvirus 3; WI-38 monolayers, at least 50% plaque reduction, 5 - 7 days incubation at 37°C; read-out: ID50(μM) for the following viruses VZV. The method, then:
as §1

A short description of series [4]: Visible toxicity to the cell monolayers under the antiviral assay conditions. To be noted: human, wi-38 cells; concentration at which toxicity was visible. On the procedure: HSV-1, HSV-2, HCMV and VZV antiviral assays: Virus was adsorbed to WI-38 cell culture monolayers in 6 well culture plates (Costar, Cambridge, MA) for 1 hour prior to addition of maintenance medium containing duplicate dilutions of the test compound. Inhibition of plaque development was evaluated on fixed and stained monolayers after 4 days incubation at 37°C. for HSV-1 and HSV-2, and after 5 - 7 days incubation at 37°C. for HCMV and VZV. ID₅₀ values were determined from the drug concentration which conferred at least a 50% plaque reduction compared to virus controls.

Series [5] relates to HCMV (human cytomegalovirus, strain AD 169). The series is described as follows: Plaque reduction antiviral assay in WI-38 cell culture, HCMV. To be noted: Human betaherpesvirus 5; WI-38 monolayers, at least 50% plaque reduction, 5 - 7 days incubation at 37°C; read-out: ID50(μM) for the following viruses HCMV. On the procedure: as §1

SMILES strings stand for the structures. Bounds are passed on as bounds.

In the case of `C=C1C(O)C(CO)CC1n1cnc2c(N)ncnc21` (stereo not drawn) [Example 2, (1α,2β,4α)-4-(6-Amino-9H-purin-9-yl)-2-hydroxy-3-methylenecyclopentanemethanol], the IC50 in series [1] was 383 µM; in series [2], 383 µM; in series [3], over 38 µM; in series [5], over 38 µM. In addition, the MCC in series [4] is 383 µM.
As to `C=C1C(O)C(CO)CC1n1cnc2c(=O)[nH]c(N)nc21` (stereo not drawn) [Example 1, (1α,3β,4α)-2-Amino-1,9-dihydro-9-[3-hydroxy-4-(hydroxymethyl)-2-methylenecyclopentyl]-6H-purin-6-one], the IC50 is 7 to 18 µM in series [1], 4 to 7 µM in series [2], 7 to 18 µM in series [3] and 7 µM in series [5]. In series [4], this compound gave an MCC of 361 µM.
In the case of `C=C1C(O)C(CO)CC1n1cc(C=CBr)c(=O)[nH]c1=O` (stereo not drawn) [Example 5, [1α(E),3β,4α]-5-[2-Bromoethenyl)-1-[3-hydroxy-4-(hydroxymethyl)-2-methylenecyclopentyl]-2,4-(1H,3H)-pyrimidinedione], the IC50 in series [1] was over 291 µM; in series [2], 291 µM; in series [3], 1.5 to 3 µM. In series [4], the MCC came out at 291 µM.
Turning to `C=C1C(O)C(CO)CC1n1cc(I)c(=O)[nH]c1=O` (stereo not drawn) [Example 4, (1α,3β,4α)-1-[3-Hydroxy-4-(hydroxymethyl)-2-methylenecyclopentyl]-5-iodo-2,4(1H,3H)-pyrimidinedione], the IC50 in series [1] is over 275 µM; in series [2], over 275 µM; in series [3], 275 µM; in series [5], 28 to 275 µM. In series [4], the MCC was 275 µM.
Consider `C=C1C(O)C(CO)CC1n1cc(C)c(=O)[nH]c1=O` (stereo not drawn) [Example 3, (1α,3β,4α)-1-[3-Hydroxy-4-(hydroxymethyl)-2-methylenecyclopentyl]-5-methyl-2,4(1H,3H)-pyrimidinedione], for which the IC50 in series [1] is over 396 µM; in series [2], 100 to 200 µM; in series [3], 40 µM; in series [5], over 396 µM. In series [4], the MCC stood at 396 µM.
